Tests used:
Format in all cases: cell-based
[1] = tested on: LOX IMVI; assay: NCI DTP in-vitro dose response, Melanoma
[2] = tested on: UACC-257; assay: NCI DTP in-vitro dose response, Melanoma
[3] = tested on: SK-MEL-2; assay: NCI DTP in-vitro dose response, Melanoma
[4] = tested on: M14; assay: NCI DTP in-vitro dose response, Melanoma
[5] = tested on: SK-MEL-28; assay: NCI DTP in-vitro dose response, Melanoma
[6] = tested on: MALME-3M; assay: NCI DTP in-vitro dose response, Melanoma
[7] = tested on: SK-MEL-5; assay: NCI DTP in-vitro dose response, Melanoma
[8] = tested on: UACC-62; assay: NCI DTP in-vitro dose response, Melanoma
[9] = tested on: OVCAR-4; assay: NCI DTP in-vitro dose response, Ovarian Cancer
[10] = tested on: OVCAR-5; assay: NCI DTP in-vitro dose response, Ovarian Cancer
[11] = tested on: OVCAR-3; assay: NCI DTP in-vitro dose response, Ovarian Cancer
[12] = tested on: OVCAR-8; assay: NCI DTP in-vitro dose response, Ovarian Cancer
[13] = tested on: IGROV1; assay: NCI DTP in-vitro dose response, Ovarian Cancer
[14] = tested on: SK-OV-3; assay: NCI DTP in-vitro dose response, Ovarian Cancer

O=C1c2ccccc2C(=O)c2c1ccc1nccnc21 [TABLE 5-5]
CC50 [1]: > 100 µM
TGI [1]: 3.89E−5
Percent Growth ([1]; Log10 Concentration −4.0): −22%
Percent Growth ([1]; Log10 Concentration −5.0): 31%
Percent Growth ([1]; Log10 Concentration −6.0): 81%
Percent Growth ([1]; Log10 Concentration −7.0): 85%
Percent Growth ([1]; Log10 Concentration −8.0): 90%
GI50 ([1]; read-out: GI50): 4.2 µM
CC50 [2]: > 100 µM
TGI [2]: 6.83E−5
Percent Growth ([2]; Log10 Concentration −4.0): −11%
Percent Growth ([2]; Log10 Concentration −5.0): 58%
Percent Growth ([2]; Log10 Concentration −6.0): 99%
Percent Growth ([2]; Log10 Concentration −7.0): 88%
Percent Growth ([2]; Log10 Concentration −8.0): 95%
GI50 ([2]; read-out: GI50): 13 µM
CC50 [3]: > 100 µM
TGI [3]: 5.59E−5
Percent Growth ([3]; Log10 Concentration −4.0): −20%
Percent Growth ([3]; Log10 Concentration −5.0): 58%
Percent Growth ([3]; Log10 Concentration −6.0): 102%
Percent Growth ([3]; Log10 Concentration −7.0): 85%
Percent Growth ([3]; Log10 Concentration −8.0): 97%
GI50 ([3]; read-out: GI50): 12.7 µM
CC50 [4]: > 100 µM
TGI [4]: >1.00E−4
Percent Growth ([4]; Log10 Concentration −5.0): 34%
Percent Growth ([4]; Log10 Concentration −6.0): 89%
Percent Growth ([4]; Log10 Concentration −7.0): 91%
Percent Growth ([4]; Log10 Concentration −8.0): 95%
GI50 ([4]; read-out: GI50): 5.14 µM
CC50 [5]: > 100 µM
TGI [5]: 9.11E−5
Percent Growth ([5]; Log10 Concentration −4.0): −3%
Percent Growth ([5]; Log10 Concentration −5.0): 75%
Percent Growth ([5]; Log10 Concentration −6.0): 104%
Percent Growth ([5]; Log10 Concentration −7.0): 101%
Percent Growth ([5]; Log10 Concentration −8.0): 100%
GI50 ([5]; read-out: GI50): 21 µM
CC50 [6]: 70.8 µM
TGI [6]: 2.07E−5
Percent Growth ([6]; Log10 Concentration −4.0): −64%
Percent Growth ([6]; Log10 Concentration −5.0): 30%
Percent Growth ([6]; Log10 Concentration −6.0): 88%
Percent Growth ([6]; Log10 Concentration −7.0): 91%
Percent Growth ([6]; Log10 Concentration −8.0): 97%
GI50 ([6]; read-out: GI50): 4.48 µM
CC50 [7]: 44.4 µM
TGI [7]: 1.71E−5
Percent Growth ([7]; Log10 Concentration −4.0): −92%
Percent Growth ([7]; Log10 Concentration −5.0): 28%
Percent Growth ([7]; Log10 Concentration −6.0): 82%
Percent Growth ([7]; Log10 Concentration −7.0): 90%
Percent Growth ([7]; Log10 Concentration −8.0): 90%
GI50 ([7]; read-out: GI50): 3.93 µM
CC50 [8]: > 100 µM
TGI [8]: 5.61E−5
Percent Growth ([8]; Log10 Concentration −4.0): −20%
Percent Growth ([8]; Log10 Concentration −5.0): 60%
Percent Growth ([8]; Log10 Concentration −6.0): 87%
Percent Growth ([8]; Log10 Concentration −7.0): 84%
Percent Growth ([8]; Log10 Concentration −8.0): 92%
GI50 ([8]; read-out: GI50): 13.3 µM

O=C1c2ccccc2C(=O)c2c1ccc1nccnc21 [TABLE 5-6]
CC50 [9]: > 100 µM
TGI [9]: >1.00E−4
Percent Growth ([9]; Log10 Concentration −4.0): 3%
Percent Growth ([9]; Log10 Concentration −5.0): 51%
Percent Growth ([9]; Log10 Concentration −6.0): 74%
Percent Growth ([9]; Log10 Concentration −7.0): 91%
Percent Growth ([9]; Log10 Concentration −8.0): 102%
GI50 ([9]; read-out: GI50): 10.5 µM
CC50 [10]: > 100 µM
TGI [10]: >1.00E−4
Percent Growth ([10]; Log10 Concentration −4.0): 19%
Percent Growth ([10]; Log10 Concentration −5.0): 77%
Percent Growth ([10]; Log10 Concentration −6.0): 98%
Percent Growth ([10]; Log10 Concentration −7.0): 90%
Percent Growth ([10]; Log10 Concentration −8.0): 97%
GI50 ([10]; read-out: GI50): 59.3 µM
CC50 [11]: > 100 µM
TGI [11]: 1.25E−5
Percent Growth ([11]; Log10 Concentration −4.0): −42%
Percent Growth ([11]; Log10 Concentration −5.0): 4%
Percent Growth ([11]; Log10 Concentration −6.0): 77%
Percent Growth ([11]; Log10 Concentration −7.0): 95%
Percent Growth ([11]; Log10 Concentration −8.0): 104%
GI50 ([11]; read-out: GI50): 2.34 µM
CC50 [12]: > 100 µM
TGI [12]: >1.00E−4
Percent Growth ([12]; Log10 Concentration −4.0): 13%
Percent Growth ([12]; Log10 Concentration −5.0): 36%
Percent Growth ([12]; Log10 Concentration −6.0): 83%
Percent Growth ([12]; Log10 Concentration −7.0): 89%
Percent Growth ([12]; Log10 Concentration −8.0): 97%
GI50 ([12]; read-out: GI50): 5.07 µM
CC50 [13]: > 100 µM
GI50 [13]: 2.55 µM
TGI [13]: 3.59E−5
Percent Growth ([13]; Log10 Concentration −4.0): −27%
Percent Growth ([13]; Log10 Concentration −5.0): 33%
Percent Growth ([13]; Log10 Concentration −6.0): 61%
Percent Growth ([13]; Log10 Concentration −7.0): 74%
Percent Growth ([13]; Log10 Concentration −8.0): 90%
CC50 [14]: > 100 µM
TGI [14]: >1.00E−4
Percent Growth ([14]; Log10 Concentration −4.0): 8%
Percent Growth ([14]; Log10 Concentration −5.0): 44%
Percent Growth ([14]; Log10 Concentration −6.0): 79%
Percent Growth ([14]; Log10 Concentration −7.0): 89%
Percent Growth ([14]; Log10 Concentration −8.0): 91%
GI50 ([14]; read-out: GI50): 6.95 µM

From patent US8445492B2, “Method for inhibiting growth of cancer cells and cell telomere and diseases of cell proliferation by using heteroannelated anthraquinone derivative compounds” (National Defense Medical Center, priority 2008, dated 2013)
